Assay results published in patent publication US20080118494A1, “Compositions For Detection Of Latent Hiv Reactivation And Methods Of Using The Same” (priority 2004, published 2008).

Tested on: latent HIV-1 infection in human PBMCs
Assay: Reactivation of latent HIV-1 in in vitro infected, EGFP-negative sorted human PBMCs
Type: cell-based
Settings: representative donor, 24 h post stimulation, untreated background 0.23%
Protocol: PBMCs from three different donors were infected with HIV-1 NLENG1-IRES and on day three post infection were treated with indinavir to inhibit de novo infection. On day seven following infection, HIV-1 expressing EGFP^+ cells were removed from the cultures using fluorescence activated cell sorting. (A) Following the sorting procedure, the EGFP-negative cells were cultured in supplemented RPMI 1640 to determine levels of spontaneous reactivation (Control), stimulated with anti-CD3 antibody clone UCHT1 (CD3), the costimulatory anti-CD28 antibody clone CD28.2 (cCD28) and with a combination of these two antibodies (cCD28/CD3). […] Numbers indicate the percentage of EGFP positive cells and the mean channel fluorescence intensity of the EGFP-positive cell population. […]
In vitro generation and analysis of HIV-1 latency in PBMCs. […] In the absence of IL-2, the cells were cultured for seven days following infection and then subjected to fluorescence activated cell sorting (FACS) to remove EGFP positive, HIV-1 expressing cells. The EGFP negative cell fraction was then activated with the indicated stimuli and reactivation of latent HIV-1 expression was measured 24 h post stimulation by determining EGFP fluorescence using FACS analysis. […]

Compound: CCCCCCCCCCCCCC(=O)O[C@@H]1[C@@H](C)[C@@]2(O)[C@@H](C=C(CO)C[C@]3(O)C(=O)C(C)=C[C@@H]23)[C@@H]2C(C)(C)[C@]12OC(C)=O [PMA, 13-phorbol-12-myristate acetate]
- HIV-1 reactivation as percentage of EGFP+ cells: 0.60%
